From ChEMBL document CHEMBL6096719, “Kidney Targeting Smart Antibiotic Discovery: Multimechanism Pleuromutilins for Pyelonephritis Therapy” (J Med Chem, 2025)
Calls of active or inactive are those of the source. The calls are words filed in the database; no cut-off is given here.

Key:
[1] = molecular target: T1, Solute carrier family 22 member 2 (Homo sapiens, UniProt O15244); test: Substrate activity at human OCT2 transfected in HEK293 cells assessed as increase in intracellular drug content at 100 uM measured after 5 mins; format: ADME, cell-based; conditions: hek293, 5 min
T1 sequence (O15244 whole entry): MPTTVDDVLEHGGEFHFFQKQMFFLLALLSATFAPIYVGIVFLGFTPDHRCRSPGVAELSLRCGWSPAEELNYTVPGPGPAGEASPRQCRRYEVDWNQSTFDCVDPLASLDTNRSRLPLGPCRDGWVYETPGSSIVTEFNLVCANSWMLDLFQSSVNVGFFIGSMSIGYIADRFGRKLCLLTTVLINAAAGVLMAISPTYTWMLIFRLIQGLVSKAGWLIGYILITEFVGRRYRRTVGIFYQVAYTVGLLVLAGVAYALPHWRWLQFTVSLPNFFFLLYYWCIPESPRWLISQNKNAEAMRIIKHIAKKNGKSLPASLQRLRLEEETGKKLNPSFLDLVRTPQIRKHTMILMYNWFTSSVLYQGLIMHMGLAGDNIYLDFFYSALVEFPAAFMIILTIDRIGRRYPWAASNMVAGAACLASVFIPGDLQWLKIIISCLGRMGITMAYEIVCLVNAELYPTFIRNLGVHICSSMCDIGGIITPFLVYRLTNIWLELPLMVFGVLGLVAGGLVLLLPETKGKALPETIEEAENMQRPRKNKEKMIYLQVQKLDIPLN

Cell membrane [2] = test: Disruption of cell membrane in Escherichia coli ATCC25922 assessed as decrease in intracellular pH at 0.125 ug/ml incubated for 30 mins by cFDA-SE probe based fluorescence analysis; conditions: dose 0.125 µg/ml
Cell membrane [3] = test: Disruption of cell membrane in methicillin-resistant Staphylococcus aureus ATCC33591 assessed as increase in extracellular ATP content at 0.125 to 0.25 ug/ml incubated for 30 mins by luminescence based analysis; conditions: dose 0.125-0.25 µg/ml
[4] = molecular target: T1, Solute carrier family 22 member 2; test: Inhibition of human OCT2 transfected in HEK293 cells assessed as decrease in intracellular ASP accumulation […] incubated for 10 mins followed by incubation with ASP for 5 mins by fluorescence based analysis; format: cell-based; conditions: hek293, 0.25 h, time 15 min
Cell membrane [5] = test: Disruption of cell membrane in Escherichia coli ATCC25922 assessed as disrupted, furrowed, crumpled cell envelope at 0.125 to 0.5 ug/ml incubated for 2 hrs by propidium iodide staining based confocal laser scanning microscopy; format: subcellular; conditions: dose 0.125-0.5 µg/ml
[6] = Observed AUC (0 to infinity) in Sprague-Dawley rat at 5 mg/kg, iv; format: ADME, organism-based; conditions: in vivo
Acinetobacter baumannii = test: Antibacterial activity against Acinetobacter baumannii ATCC 19606 assessed as inhibition of bacterial growth incubated for 24 hrs by broth microdilution method; format: functional
[7] = test system: Mesomycoplasma hyopneumoniae; test: Anti-mycoplasma activity against Mycoplasma hyopneumoniae J NCTC10110 assessed as inhibition of bacterial growth incubated for 6 to 7 days by broth microdilution method; format: functional; conditions: time 6-7 day
[8] = test system: Mycoplasmoides pneumoniae; test: Anti-mycoplasma activity against Mycoplasma pneumoniae M129 ATCC29342 assessed as inhibition of bacterial growth incubated for 3 to 5 days by broth microdilution method; format: functional; conditions: time 3-5 day
Escherichia coli [9] = test: Antibacterial activity against Escherichia coli ATCC25922 infected in pyelonephritis C57BL/6 mouse model assessed as decrease in bacterial load in kidney at 3 to 10 mg/kg, iv qd for 3 days administered at 2 days post-infection; format: functional, organism-based; conditions: dose 3-10 mg/kg, time 3.0 day
[10] = test system: Mesomycoplasma hyopneumoniae; test: Anti-mycoplasma activity against Mycoplasma hyopneumoniae MH-LH assessed as inhibition of bacterial growth incubated for 6 to 7 days by broth microdilution method; format: functional; conditions: time 6-7 day
[11] = Cmax in Sprague-Dawley rat at 10 mg/kg, po; format: ADME, organism-based; conditions: in vivo
Pseudomonas aeruginosa = test: Antibacterial activity against multidrug-resistant Pseudomonas aeruginosa 126 assessed as inhibition of bacterial growth incubated for 24 hrs by broth microdilution method; format: functional
Escherichia coli [12] = test: Antibacterial activity against Escherichia coli ATCC25922 infected in pyelonephritis C57BL/6 mouse model assessed as decrease in MPO activity in kidney at 3 to 10 mg/kg, iv qd for 3 days administered at 2 days post-infection; format: functional, organism-based; conditions: dose 3-10 mg/kg, time 3.0 day
Staphylococcus aureus [13] = test: (§1) Antibacterial activity against methicillin-resistant Staphylococcus aureus ATCC33591 infected in systemic intraperitoneal infection Kunming mouse model assessed as decrease in inflammation and neutrophil infiltration in kidney at 5 mg/kg, ip treated at 1 hr post-infection and measured after 7 days by Hematoxylin-Eosin staining based analysis; format: functional, organism-based; conditions: time 7.0 day
Staphylococcus aureus [14] = test: Antibacterial activity against methicillin-resistant Staphylococcus aureus 222 assessed as inhibition of bacterial growth incubated for 24 hrs by broth microdilution method; format: functional
Metamycoplasma hominis = test: Anti-mycoplasma activity against Mycoplasma hominis PG-21 ATCC23114 assessed as inhibition of bacterial growth incubated for 1 to 2 days by broth microdilution method; format: functional; conditions: time 1-2 day
Cell membrane [15] = test: Disruption of cell membrane in methicillin-resistant Staphylococcus aureus ATCC33591 assessed as disrupted, furrowed, crumpled cell envelope at 0.125 to 0.5 ug/ml incubated for 2 hrs by propidium iodide staining based confocal laser scanning microscopy; format: subcellular; conditions: dose 0.125-0.5 µg/ml
[16] = AUC (0 to 24 hrs) in Sprague-Dawley rat at 5 mg/kg, iv; format: ADME, organism-based; conditions: in vivo
[17] = Drug uptake in Sprague-Dawley rat kidney at 5 mg/kg, iv measured for 6 hrs by LC-MS/MS analysis; format: ADME, organism-based; conditions: in vivo
Salmonella enterica = test: Antibacterial activity against Salmonella enterica ATCC 14028 assessed as inhibition of bacterial growth incubated for 24 hrs by broth microdilution method; format: functional
[18] = Observed AUC (0 to infinity) in Sprague-Dawley rat at 10 mg/kg, po; format: ADME, organism-based; conditions: in vivo
Cell membrane [19] = test: Disruption of cell membrane in methicillin-resistant Staphylococcus aureus ATCC33591 assessed as dissipation of membrane potential at 0.125 to 0.5 ug/ml incubated for 30 mins by DiBAC4(3) probe based fluorescence spectrophotometry; conditions: dose 0.125-0.5 µg/ml
Escherichia coli [20] = test: Antibacterial activity against Escherichia coli ATCC25922 infected in pyelonephritis C57BL/6 mouse model assessed as restoration of normal renal cortex and pelvis structures at >=5 mg/kg, iv qd for 3 days administered at 2 days post-infection by Hematoxylin-Eosin staining based analysis; format: functional, organism-based; conditions: time 3.0 day
Chlamydia pneumoniae = test: Anti-mycoplasma activity against Chlamydophila pneumoniae AR39 ATCC53592 assessed as inhibition of bacterial growth incubated for 3 to 5 days by broth microdilution method; format: functional; conditions: time 3-5 day
Staphylococcus aureus [21] = test: Antibiofilm activity against methicillin-resistant Staphylococcus aureus ATCC33591 assessed as eradication of biofilms at 0.5 ug/ml incubated for 4 hrs by field emission scanning electron microscopy; format: functional, organism-based; conditions: dose 0.5 µg/ml
[22] = Observed apparent oral clearance in Sprague-Dawley rat at 10 mg/kg, po; format: ADME, organism-based; conditions: in vivo
Staphylococcus aureus [23] = test: as §1, with “inflammation,” for “inflammation and”, “and disordered spleen structure” for “in kidney”; format: functional, organism-based; conditions: time 7.0 day
Escherichia coli [24] = test: Antibacterial activity against Escherichia coli ATCC25922 infected in pyelonephritis C57BL/6 mouse model assessed as decrease in IL-1 beta level in kidney at 3 to 10 mg/kg, iv qd for 3 days administered at 2 days post-infection by ELISA; format: functional, organism-based; conditions: dose 3-10 mg/kg, time 3.0 day

C=C[C@]1(C)C[C@@H](OC(=O)CSc2nc3cc[n+](Cc4ccc(C)cc4)cc3[nH]2)[C@]2(C)[C@H](C)CC[C@]3(CCC(=O)[C@H]32)[C@@H](C)[C@@H]1O.[Br-]
Activity [1]: Active
Activity (Cell membrane [2]): Active
Activity (Cell membrane [3]): Active
inhibition (INH) [4]: Not_active
Activity (Cell membrane [5]): Active
AUC(0-inf) [6]: 16500 ng·h/mL
MIC (Acinetobacter baumannii): < 1 µg/mL
MIC [7]: < 0.04 µg/mL
MIC [8]: < 0.008 µg/mL
Activity (Escherichia coli [9]): Active
MIC [10]: < 0.04 µg/mL
Cmax [11]: 6210 ng/mL
MIC (Pseudomonas aeruginosa): 4 µg/mL
Activity (Escherichia coli [12]): Active
Activity (Staphylococcus aureus [13]): Active; Nearly Restoration Of Normal Histology Observed
MIC (Staphylococcus aureus [14]): 4 µg/mL
MIC (Metamycoplasma hominis): < 0.04 µg/mL
Activity (Cell membrane [15]): Active
AUC(0-t) [16]: 16200 ng·h/mL
Drug uptake [17]: Active
MIC (Salmonella enterica): < 1 µg/mL
AUC(0-inf) [18]: 15800 ng·h/mL
Activity (Cell membrane [19]): Active
Activity (Escherichia coli [20]): Active
MIC (Chlamydia pneumoniae): < 0.04 µg/mL
Activity (Staphylococcus aureus [21]): Active; Almost Complete Eradication Of Bacteria Observed
CL/F [22]: 10.5 mL/min/kg
Activity (Staphylococcus aureus [23]): Active; Nearly Restoration Of Normal Histology Observed
Activity (Escherichia coli [24]): Dose-dependent-effect
